Data: ChEMBL document CHEMBL2434822, “Discovery of pteridin-7(8H)-one-based irreversible inhibitors targeting the epidermal growth factor receptor (EGFR) kinase T790M/L858R mutant” (J Med Chem, 2013)
The source made the active and inactive calls. No cut-off for these calls is given here.

What was measured:
[1] = biological target: Epidermal growth factor receptor (Homo sapiens, UniProt P00533, L858R); assay: Inhibition of EGFR L858R mutant (unknown origin) using Tyr 4 peptide as substrate after 1.5 hrs by FRET-based Z'-LYTE assay; assay type: protein assay
[2] = biological target: T1, Epidermal growth factor receptor (Homo sapiens, UniProt P00533); assay: Inhibition of wild type EGFR (unknown origin) using Tyr 4 peptide as substrate after 1.5 hrs by FRET-based Z'-LYTE assay
[3] = tested on: NCI-H1975; assay: cells; assay type: functional, cell-based; settings: Homo sapiens, NCI-H1975, 72 h
[4] = Antiproliferative activity against gefitinib-sensitive human HCC827 cells harboring EGFR E746 to A750 deletion after 72 hrs by MTS assay; assay type: functional, cell-based; settings: HCC827, 72 h
[5] = biological target: Epidermal growth factor receptor (Homo sapiens, UniProt P00533, L858R/T790M); assay: (§1) Inhibition of EGFR T790M/L858R double mutant (unknown origin) using Tyr 4 peptide as substrate after 1.5 hrs by FRET-based Z'-LYTE assay; assay type: protein assay
[6] = biological target: Epidermal growth factor receptor (Homo sapiens, UniProt P00533, T790M/L858R); assay: as §1; assay type: protein assay
[7] = Toxicity in ip dosed nude mouse xenografted with human NCI-H1975 cells expressing T790M/L858R mutation administered qd for 14 days; assay type: organism-based; settings: in vivo
[8] = tested on: NCI-H1975; assay: Antitumor activity against human NCI-H1975 cells xenografted in nude mouse assessed as induction of tumor stasis at 20 mg/kg, ip qd for 14 days; assay type: functional, organism-based; parameters: dose 20 mg/kg
[9] = biological target: T2, Tyrosine-protein kinase JAK3 (Homo sapiens) (UniProt P52333); settings: 1 uM
T2 sequence (whole entry): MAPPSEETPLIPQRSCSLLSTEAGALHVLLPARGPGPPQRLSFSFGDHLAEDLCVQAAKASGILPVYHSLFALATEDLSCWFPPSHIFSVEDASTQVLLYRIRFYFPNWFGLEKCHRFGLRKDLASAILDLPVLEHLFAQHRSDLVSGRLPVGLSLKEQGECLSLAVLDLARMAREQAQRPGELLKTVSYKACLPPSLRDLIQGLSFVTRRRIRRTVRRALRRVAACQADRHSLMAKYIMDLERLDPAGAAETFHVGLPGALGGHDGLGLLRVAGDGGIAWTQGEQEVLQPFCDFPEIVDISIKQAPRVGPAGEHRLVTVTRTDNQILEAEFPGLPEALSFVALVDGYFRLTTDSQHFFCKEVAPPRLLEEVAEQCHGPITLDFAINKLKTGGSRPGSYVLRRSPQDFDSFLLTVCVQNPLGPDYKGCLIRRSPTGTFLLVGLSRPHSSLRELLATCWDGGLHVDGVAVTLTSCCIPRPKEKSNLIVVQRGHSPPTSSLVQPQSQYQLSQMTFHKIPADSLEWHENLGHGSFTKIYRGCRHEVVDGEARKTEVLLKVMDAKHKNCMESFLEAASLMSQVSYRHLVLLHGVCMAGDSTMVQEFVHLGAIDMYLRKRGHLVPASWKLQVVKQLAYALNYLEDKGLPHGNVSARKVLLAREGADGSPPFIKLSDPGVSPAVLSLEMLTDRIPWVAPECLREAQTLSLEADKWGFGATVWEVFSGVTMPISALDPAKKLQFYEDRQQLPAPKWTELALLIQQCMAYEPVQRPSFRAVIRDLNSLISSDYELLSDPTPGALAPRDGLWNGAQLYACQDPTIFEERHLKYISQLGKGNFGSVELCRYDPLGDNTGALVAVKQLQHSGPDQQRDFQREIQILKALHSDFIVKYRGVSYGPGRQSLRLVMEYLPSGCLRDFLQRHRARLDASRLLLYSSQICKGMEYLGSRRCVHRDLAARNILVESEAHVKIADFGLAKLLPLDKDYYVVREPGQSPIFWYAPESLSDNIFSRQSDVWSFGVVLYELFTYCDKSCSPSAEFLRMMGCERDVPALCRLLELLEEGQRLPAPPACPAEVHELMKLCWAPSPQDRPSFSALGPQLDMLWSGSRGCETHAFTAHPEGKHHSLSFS
Description: Inhibition of JAK3 JH1 catalytic domain (unknown origin) at 1 uM after 1 hr relative to control

[10] = biological target: Receptor tyrosine-protein kinase erbB-2 (Homo sapiens) (UniProt P04626); settings: 1 uM
Receptor tyrosine-protein kinase erbB-2 (Homo sapiens), sequence (P04626 whole entry): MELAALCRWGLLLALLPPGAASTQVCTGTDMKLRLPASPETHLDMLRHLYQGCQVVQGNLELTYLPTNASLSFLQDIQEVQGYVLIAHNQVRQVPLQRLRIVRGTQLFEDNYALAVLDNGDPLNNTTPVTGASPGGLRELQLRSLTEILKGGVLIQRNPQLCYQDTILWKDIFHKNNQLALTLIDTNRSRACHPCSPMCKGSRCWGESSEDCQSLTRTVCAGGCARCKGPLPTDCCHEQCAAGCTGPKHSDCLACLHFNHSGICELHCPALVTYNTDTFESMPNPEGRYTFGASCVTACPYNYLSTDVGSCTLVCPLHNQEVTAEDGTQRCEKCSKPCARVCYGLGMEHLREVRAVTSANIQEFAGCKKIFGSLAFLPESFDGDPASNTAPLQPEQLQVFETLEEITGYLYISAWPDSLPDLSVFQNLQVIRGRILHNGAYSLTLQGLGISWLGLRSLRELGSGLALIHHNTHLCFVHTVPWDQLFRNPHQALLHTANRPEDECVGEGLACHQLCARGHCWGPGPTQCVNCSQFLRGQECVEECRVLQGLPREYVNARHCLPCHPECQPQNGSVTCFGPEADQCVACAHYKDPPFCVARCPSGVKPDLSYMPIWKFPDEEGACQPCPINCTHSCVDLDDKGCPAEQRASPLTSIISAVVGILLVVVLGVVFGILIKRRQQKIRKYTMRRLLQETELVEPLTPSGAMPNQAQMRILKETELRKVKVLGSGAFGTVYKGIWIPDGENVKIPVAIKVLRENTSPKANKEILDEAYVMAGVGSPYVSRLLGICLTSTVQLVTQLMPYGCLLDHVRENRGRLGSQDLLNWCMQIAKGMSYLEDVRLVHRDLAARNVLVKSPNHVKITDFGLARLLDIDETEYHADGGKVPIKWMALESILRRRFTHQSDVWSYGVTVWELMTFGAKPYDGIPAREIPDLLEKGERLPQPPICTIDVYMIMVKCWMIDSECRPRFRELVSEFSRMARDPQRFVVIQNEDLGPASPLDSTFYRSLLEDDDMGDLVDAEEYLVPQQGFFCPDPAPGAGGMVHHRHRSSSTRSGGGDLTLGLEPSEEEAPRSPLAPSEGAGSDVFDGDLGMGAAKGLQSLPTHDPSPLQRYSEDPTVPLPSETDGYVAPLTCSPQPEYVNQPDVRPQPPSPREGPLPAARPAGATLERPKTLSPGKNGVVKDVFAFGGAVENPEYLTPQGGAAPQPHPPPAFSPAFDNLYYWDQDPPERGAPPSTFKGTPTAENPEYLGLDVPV
Description: Inhibition of HER2 (unknown origin) at 1 uM after 1 hr relative to control

[11] = tested on: NCI-H1975; assay: Antitumor activity against human NCI-H1975 cells xenografted in nude mouse assessed as tumor growth inhibition at 20 mg/kg, ip qd for 14 days; assay type: functional, organism-based; parameters: dose 20 mg/kg
[12] = tested on: Epidermal growth factor receptor (Homo sapiens), P00533 [L858R,T790M]; settings: 1 uM
[13] = biological target: Tyrosine-protein kinase BTK (Homo sapiens) (UniProt Q06187); settings: 1 uM
Tyrosine-protein kinase BTK (Homo sapiens), sequence (Q06187 whole entry): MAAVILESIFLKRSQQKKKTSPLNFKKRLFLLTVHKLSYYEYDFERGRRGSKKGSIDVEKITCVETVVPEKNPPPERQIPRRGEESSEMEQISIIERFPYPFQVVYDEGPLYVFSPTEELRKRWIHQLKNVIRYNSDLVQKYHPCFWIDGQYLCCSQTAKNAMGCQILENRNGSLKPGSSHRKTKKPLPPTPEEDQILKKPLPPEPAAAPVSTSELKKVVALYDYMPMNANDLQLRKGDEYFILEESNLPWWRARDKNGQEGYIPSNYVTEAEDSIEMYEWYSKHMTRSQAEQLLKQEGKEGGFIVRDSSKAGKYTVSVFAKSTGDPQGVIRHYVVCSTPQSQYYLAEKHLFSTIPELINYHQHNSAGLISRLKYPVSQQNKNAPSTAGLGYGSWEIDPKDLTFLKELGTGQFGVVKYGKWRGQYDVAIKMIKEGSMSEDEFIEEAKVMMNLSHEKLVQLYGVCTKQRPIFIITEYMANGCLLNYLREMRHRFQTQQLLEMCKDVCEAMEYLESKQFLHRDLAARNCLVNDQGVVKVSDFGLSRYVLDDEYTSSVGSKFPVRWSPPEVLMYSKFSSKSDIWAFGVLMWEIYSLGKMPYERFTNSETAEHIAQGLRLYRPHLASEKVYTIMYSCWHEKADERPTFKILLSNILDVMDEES
Description: Inhibition of BTK (unknown origin) at 1 uM after 1 hr relative to control

[14] = biological target: T1, Epidermal growth factor receptor; settings: 1 uM
Description: Inhibition of EGFR (unknown origin) at 1 uM after 1 hr relative to control

[15] = tested on: Epidermal growth factor receptor (Homo sapiens), P00533 [T790M]; settings: 1 uM
[16] = tested on: Mus musculus; assay: Toxicity in nude mouse xenografted with human NCI-H1975 cells expressing T790M/L858R mutation assessed as body weight loss at 20 to 40 mg/kg, ip qd for 14 days relative to control; assay type: organism-based; parameters: dose 20-40 mg/kg, route intraperitoneal; settings: in vivo, 336 h
[17] = biological target: Receptor tyrosine-protein kinase erbB-4 (Homo sapiens) (UniProt Q15303); settings: 1 uM
Receptor tyrosine-protein kinase erbB-4 (Homo sapiens), sequence (Q15303 whole entry): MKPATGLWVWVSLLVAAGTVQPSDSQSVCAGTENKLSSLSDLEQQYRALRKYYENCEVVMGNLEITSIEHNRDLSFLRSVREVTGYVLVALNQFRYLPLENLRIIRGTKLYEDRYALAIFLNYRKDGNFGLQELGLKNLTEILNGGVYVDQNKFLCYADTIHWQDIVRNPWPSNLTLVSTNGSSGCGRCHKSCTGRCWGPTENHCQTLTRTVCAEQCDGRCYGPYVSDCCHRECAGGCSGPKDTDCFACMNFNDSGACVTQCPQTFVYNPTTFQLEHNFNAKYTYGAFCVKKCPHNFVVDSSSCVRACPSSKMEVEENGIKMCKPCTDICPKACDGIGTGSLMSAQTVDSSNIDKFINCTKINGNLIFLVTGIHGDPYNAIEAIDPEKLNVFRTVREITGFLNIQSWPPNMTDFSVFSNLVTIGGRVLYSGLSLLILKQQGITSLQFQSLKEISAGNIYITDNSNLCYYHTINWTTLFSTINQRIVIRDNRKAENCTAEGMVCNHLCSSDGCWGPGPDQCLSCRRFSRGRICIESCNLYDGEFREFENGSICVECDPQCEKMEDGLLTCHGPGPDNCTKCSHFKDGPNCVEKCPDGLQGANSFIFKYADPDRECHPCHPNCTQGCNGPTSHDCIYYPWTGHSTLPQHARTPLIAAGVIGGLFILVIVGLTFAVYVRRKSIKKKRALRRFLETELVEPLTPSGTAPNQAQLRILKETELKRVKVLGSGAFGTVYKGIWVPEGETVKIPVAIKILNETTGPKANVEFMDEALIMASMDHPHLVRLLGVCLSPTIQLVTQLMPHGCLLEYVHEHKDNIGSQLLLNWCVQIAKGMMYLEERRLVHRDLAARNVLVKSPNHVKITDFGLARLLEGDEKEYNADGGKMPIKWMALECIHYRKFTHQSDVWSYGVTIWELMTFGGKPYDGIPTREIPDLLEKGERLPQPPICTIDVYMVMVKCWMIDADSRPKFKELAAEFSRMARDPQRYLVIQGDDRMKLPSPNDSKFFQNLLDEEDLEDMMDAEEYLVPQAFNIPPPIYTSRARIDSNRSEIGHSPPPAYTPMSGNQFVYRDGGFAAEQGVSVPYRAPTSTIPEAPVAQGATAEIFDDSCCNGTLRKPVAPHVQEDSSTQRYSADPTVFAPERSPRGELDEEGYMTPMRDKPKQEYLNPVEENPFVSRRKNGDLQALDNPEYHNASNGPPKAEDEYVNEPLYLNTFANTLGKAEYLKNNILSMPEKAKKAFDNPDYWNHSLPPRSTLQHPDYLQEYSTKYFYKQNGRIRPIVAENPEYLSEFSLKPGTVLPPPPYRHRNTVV
Description: Inhibition of HER4 (unknown origin) at 1 uM after 1 hr relative to control

[18] = tested on: Epidermal growth factor receptor (Homo sapiens), P00533 [L858R]; settings: 1 uM
[19] = tested on: Mus musculus; assay: Toxicity in nude mouse xenografted with human NCI-H1975 cells expressing T790M/L858R mutation assessed as mortality at 20 to 40 mg/kg, ip qd for 14 days; assay type: organism-based; parameters: dose 20-40 mg/kg, route intraperitoneal; settings: in vivo, 336 h

SMILES	IC50 ([1]; read-out: IC50) [nM]	IC50 ([2]; read-out: IC50) [nM]	IC50 [3] [nM]	IC50 [5] [nM]	IC50 [4] [nM]	other results
COc1ccc(-n2c(=O)cnc3cnc(Nc4ccc(N)cc4)nc32)cc1	8450	25800	> 10000	–	> 10000	–
C=CC(=O)Nc1cccc(-n2c(=O)cnc3cnc(Nc4ccc(N(CC)CC)cc4)nc32)c1	14.1	14.5	4090	4.72	44.5	–
C=CC(=O)Nc1ccc(-n2c(=O)cnc3cnc(Nc4ccc(N5CCOCC5)cc4)nc32)cc1	8670	5590	> 10000	3460	7160	–
COc1ccc(Nc2ncc3ncc(=O)n(-c4cccc(N)c4)c3n2)cc1	55900	–	> 10000	21300	> 10000	IC50 [2]: Not Active
C=CC(=O)Oc1ccc(-n2c(=O)cnc3cnc(Nc4ccc(OC)cc4)nc32)cc1	123	60.4	5900	59.1	8590	–
CCC(=O)Nc1cccc(-n2c(=O)cnc3cnc(Nc4ccc(OC)cc4)nc32)c1	–	–	> 10000	–	> 10000	IC50 [1]: Not Active; IC50 [2]: Not Active; IC50 [6]: Not Active
C=CC(=O)Nc1cccc(-n2c(=O)cnc3cnc(Nc4ccc(N5CCN(C)CC5)cc4OC)nc32)c1	2.56	3.82	59	1.07	8.6	MTD at 336 h [7]: 20 mg/kg; Activity [8]: Active; residual activity [9]: < 10%; residual activity [10]: < 10%; TGI [11]: Active; residual activity [12]: 0.1%; residual activity [13]: < 1%; residual activity [14]: < 10%; residual activity [15]: 0.35%; Activity [16]: < 5%; residual activity [17]: < 1%; residual activity [18]: 0.3%; Activity [19]: Non-toxic
C=CC(=O)Nc1ccc(-n2c(=O)cnc3cnc(Nc4ccccc4)nc32)cc1	–	–	> 10000	–	> 10000	IC50 [1]: Not Active; IC50 [2]: Not Active; IC50 [6]: Not Active
C=CC(=O)Nc1ccc(-n2c(=O)c(C)nc3cnc(Nc4ccc(OC)cc4)nc32)cc1	7170	16300	> 10000	35000	2760	–
CCC(=O)Nc1ccc(-n2c(=O)cnc3cnc(Nc4ccc(OC)cc4)nc32)cc1	–	–	> 10000	–	> 10000	IC50 [1]: Not Active; IC50 [2]: Not Active; IC50 [6]: Not Active
C=CC(=O)Nc1ccc(-n2c(=O)cnc3cnc(Nc4ccc(N5CCN(C)CC5)cc4)nc32)cc1	1510	1100	6140	691	2370	–
COc1ccc(-n2c(=O)cnc3cnc(Nc4cccc(N)c4)nc32)cc1	8040	18300	> 10000	3840	> 10000	–
C=CC(=O)Nc1ccc(-n2c(=O)cnc3cnc(Nc4ccc(Cl)cc4)nc32)cc1	496	374	> 10000	144	> 10000	–
COc1ccc(Nc2ncc3ncc(=O)n(-c4ccc(NC(=O)/C=C/CN(C)C)cc4)c3n2)cc1	76.5	59.1	> 10000	31.3	8380	–
C=CC(=O)Nc1cccc(-n2c(=O)cnc3cnc(Nc4ccc(C(N)=O)cc4)nc32)c1	11.8	12.1	8480	3.97	511	–
COc1ccc(Nc2ncc3ncc(=O)n(-c4ccc(N)cc4)c3n2)cc1	–	–	> 10000	–	> 10000	IC50 [1]: Not Active; IC50 [2]: Not Active; IC50 [6]: Not Active
CN(C)C/C=C/C(=O)Nc1ccc(-n2c(=O)cnc3cnc(Nc4ccccc4)nc32)cc1	–	–	> 10000	–	5010	IC50 [1]: Not Active; IC50 [2]: Not Active; IC50 [6]: Not Active

Further molecules by falling IC50 [3], results first:

IC50 ([1]; read-out: IC50) [nM]	IC50 ([2]; read-out: IC50) [nM]	IC50 [3] [nM]	IC50 [5] [nM]	SMILES	IC50 [4] [nM]	other results
14	12.5	4080	4.53	C=CC(=O)Nc1cccc(-n2c(=O)cnc3cnc(Nc4ccc(NC(C)=O)cc4)nc32)c1	388	–
496	395	2740	272	C=CC(=O)Nc1ccc(-n2c(=O)cnc3cnc(Nc4ccc(N5CCN(C)CC5)cc4OC)nc32)cc1	503	–
–	–	2360	–	C=CC(=O)Nc1cccc(Nc2ncc3ncc(=O)n(-c4ccc(OC)cc4)c3n2)c1	1220	IC50 [1]: Not Active; IC50 [2]: Not Active; IC50 [6]: Not Active
49.1	47.1	2240	17.6	C=CC(=O)Nc1cccc(-n2c(=O)cnc3cnc(Nc4ccc(Cl)cc4)nc32)c1	175	–
23700	5130	2200	4800	C=CC(=O)Nc1ccc(-n2c(=O)cnc3cnc(Nc4ccc(OC)cc4)nc32)cc1	1690	–
70600	33900	1330	70200	C=CC(=O)Nc1ccc(Nc2ncc3ncc(=O)n(-c4ccc(OC)cc4)c3n2)cc1	1460	–
13	15.3	579	4.96	C=CC(=O)Nc1cccc(-n2c(=O)cnc3cnc(Nc4ccc(N5CCCC5)cc4)nc32)c1	70.8	–
32800	26300	559	56200	COc1ccc(Nc2ncc3ncc(=O)n(-c4cccc(NC(=O)/C=C/CN(C)C)c4)c3n2)cc1	917	–
14.8	15.7	298	5.12	C=CC(=O)Nc1cccc(-n2c(=O)cnc3cnc(Nc4ccc(N5CCCCC5)cc4)nc32)c1	25.3	–
7.26	6.95	255	2.86	C=CC(=O)Nc1cccc(-n2c(=O)cnc3cnc(Nc4ccc(N5CCOCC5)cc4)nc32)c1	15.2	–
14.8	13.8	63.8	5.6	C=CC(=O)Nc1cccc(-n2c(=O)cnc3cnc(Nc4ccc(OC)cc4)nc32)c1	9.49	–
1.32	1.21	62.2	0.677	C=CC(=O)Nc1cccc(-n2c(=O)cnc3cnc(Nc4ccc(N5CCN(C)CC5)cc4)nc32)c1	4.02	–
